Test results: patent publication US20250034159A1, “INHIBITORS OF EPIDERMAL GROWTH FACTOR RECEPTOR” (ORIC Pharmaceuticals, Inc., priority 2021, published 2025)
Where two headings read alike, the source gives them in different places.

Columns and labels:
[1] = molecular target: recombinant human EGFR exon 19 deletion/C797S double mutant protein (Homo sapiens (Human), UniProt P00533, C797S/DEL746-750); assay: Biological Activity Assay C: biochemical assay against EGFR exon 19 deletion/C797S protein (EGFR d19/CS)
Method in brief: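 IC50 values were fitted with a 4-parameter model to reaction slopes taken from 90 kinetic reads spaced 120 s apart. The Phosphosens sensor/ATP working solution was 40 uM/4 mM, and compound was dosed as 16-point dilutions at 2.5% final DMSO.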

Ba/F3_EGFR WT cells = assay: Biological Activity Assay D: BaF3 cell proliferation assay, EGFR wild-type (BaF3 WT); assay type: cell-based; conditions: Ba/F3 EGFR, read-out: BaF3 WT IC50
BaF3_EGFR LR/CS cells = assay: Biological Activity Assay D: BaF3 cell proliferation assay, EGFR L858R/C797S mutant (BaF3 LR/CS); assay type: cell-based; conditions: Ba/F3 EGFR, read-out: BaF3 LR/CS IC50
BaF3_EGFR d19/CS cells = assay: Biological Activity Assay D: BaF3 cell proliferation assay, EGFR exon 19 deletion/C797S (BaF3 d19/CS); assay type: cell-based; conditions: Ba/F3 EGFR, read-out: BaF3 d19/CS IC50
[2] = Ba/F3_EGFR WT cells, ~72 hours, CellTiter-Glo
[3] = BaF3_EGFR LR/CS cells, ~72 hours, CellTiter-Glo
[4] = BaF3_EGFR d19/CS cells, ~72 hours, CellTiter-Glo

recombinant human EGFR exon 19 deletion/C797S double mutant protein, sequence (P00533 other isoform, or with tags, fused parts or gaps C797S/del 1-668/del 746-750 limits assumed): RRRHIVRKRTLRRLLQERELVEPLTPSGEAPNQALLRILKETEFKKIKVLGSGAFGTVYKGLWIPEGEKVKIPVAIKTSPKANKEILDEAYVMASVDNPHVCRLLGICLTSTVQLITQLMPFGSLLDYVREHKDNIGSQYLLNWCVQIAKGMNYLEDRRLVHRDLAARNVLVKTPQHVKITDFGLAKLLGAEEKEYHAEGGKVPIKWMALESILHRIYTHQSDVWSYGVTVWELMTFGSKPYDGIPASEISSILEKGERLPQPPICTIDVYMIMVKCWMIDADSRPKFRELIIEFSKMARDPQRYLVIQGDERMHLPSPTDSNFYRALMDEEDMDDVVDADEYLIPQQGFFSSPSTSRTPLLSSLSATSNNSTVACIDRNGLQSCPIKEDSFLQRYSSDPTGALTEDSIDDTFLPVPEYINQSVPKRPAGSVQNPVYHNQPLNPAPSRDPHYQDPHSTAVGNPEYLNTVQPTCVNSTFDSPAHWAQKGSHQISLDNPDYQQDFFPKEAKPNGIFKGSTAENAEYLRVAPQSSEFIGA

Row | Compound | IC50 [1] | IC50 (Ba/F3_EGFR WT cells; [2]) | IC50 (BaF3_EGFR LR/CS cells; [3]) | IC50 (BaF3_EGFR d19/CS cells; [4]) | IC50 (Ba/F3_EGFR WT cells; 72 h) | IC50 (BaF3_EGFR LR/CS cells; 72 h) | IC50 (BaF3_EGFR d19/CS cells; 72 h)
1 | Fc1ccc(-c2nn([C@H]3C[C@H](F)C3)cc2-c2ncnc3oc(-c4ccccc4)cc23)cc1 [Example 219, 4-{1-[(1r,3r)-3-fluorocyclobutyl]-3-(4-fluorophenyl)-1H-pyrazol-4-yl}-6-phenylfuro[2,3-d]pyrimidine] | 1.53 nM | 4370 nM | 221 nM | 200 nM | – | – | –
2 | CC1(C)CC(Cn2cc(-c3ncnc4oc(-c5ccccc5)cc34)c(-c3ccc(F)cc3)n2)O1 (centres unmarked) [Example 220, 4-{1-[(4,4-dimethyloxetan-2-yl)methyl]-3-(4-fluorophenyl)-1H-pyrazol-4-yl}-6-phenylfuro[2,3-d]pyrimidine] | 0.55 nM | 1040 nM | 37.2 nM | 111 nM | – | – | –
3 | Cc1noc(-c2cc3c(-c4cn(C5CS(=O)(=O)C5)nc4-c4ccc(F)cc4)ncnc3o2)n1 [Example 223, 3-{3-(4-fluorophenyl)-4-[6-(3-methyl-1,2,4-oxadiazol-5-yl)furo[2,3-d]pyrimidin-4-yl]-1H-pyrazol-1-yl}-1λ6-thietane-1,1-dione] | 21.6 nM | > 20000 nM | 2200 nM | 893 nM | – | – | –
4 | Cc1ncc(-c2cc3c(-c4cn(C5CS(=O)(=O)C5)nc4-c4ccc(F)cc4)ncnc3o2)s1 [Example 224, 3-{3-(4-fluorophenyl)-4-[6-(2-methyl-1,3-thiazol-5-yl)furo[2,3-d]pyrimidin-4-yl]-1H-pyrazol-1-yl}-16-thietane-1,1-dione] | 0.14 nM | – | – | – | 1450 nM | 26.6 nM | 37.7 nM
5 | CN(C)C(=O)c1ccccc1-c1cc2c(-c3cn(C4CS(=O)(=O)C4)nc3-c3ccc(F)cc3)ncnc2o1 [Example 228, 2-{4-[1-(1,1-dioxo-1λ6-thietan-3-yl)-3-(4-fluorophenyl)-1H-pyrazol-4-yl]furo[2,3-d]pyrimidin-6-yl}-N,N-dimethylbenzamide] | 2.13 nM | 4560 nM | 667 nM | 384 nM | – | – | –
6 | CNC(=O)c1ccccc1-c1cc2c(-c3cn(C4CS(=O)(=O)C4)nc3-c3ccc(F)cc3)ncnc2o1 [Example 229, 2-{4-[1-(1,1-dioxo-1λ6-thietan-3-yl)-3-(4-fluorophenyl)-1H-pyrazol-4-yl]furo[2,3-d]pyrimidin-6-yl}-N-methylbenzamide] | 0.67 nM | 3760 nM | 292 nM | 169 nM | – | – | –
7 | Fc1ccc(-c2nn(CCOC(F)F)cc2-c2ncnc3oc(-c4ccccc4)cc23)cc1 [Example 231, 4-{1-[2-(difluoromethoxy)ethyl]-3-(4-fluorophenyl)-1H-pyrazol-4-yl}-6-phenylfuro[2,3-d]pyrimidine] | 0.46 nM | 660 nM | 17.9 nM | 35.4 nM | – | – | –
8 | N#CCCc1cccc(-c2cc3c(-c4cn(C5CS(=O)(=O)C5)nc4-c4ccc(F)cc4)ncnc3o2)c1 [Example 232, 3-(3-{4-[1-(1,1-dioxo-1λ6-thietan-3-yl)-3-(4-fluorophenyl)-1H-pyrazol-4-yl]furo[2,3-d]pyrimidin-6-yl}phenyl)propanenitrile] | 0.23 nM | 301 nM | 9.42 nM | 9.99 nM | – | – | –
9 | Cc1cnc(-c2cc3c(-c4cn(C5CS(=O)(=O)C5)nc4-c4ccc(F)cc4)ncnc3o2)o1 [Example 234, 3-{3-(4-fluorophenyl)-4-[6-(5-methyl-1,3-oxazol-2-yl)furo[2,3-d]pyrimidin-4-yl]-1H-pyrazol-1-yl}-1λ6-thietane-1,1-dione] | 3.6 nM | 2120 nM | 438 nM | 309 nM | – | – | –
10 | O=S1(=O)CC(n2cc(-c3ncnc4oc(-c5ccsn5)cc34)c(-c3ccc(F)cc3)n2)C1 [Example 235, 3-{3-(4-fluorophenyl)-4-[6-(1,2-thiazol-3-yl)furo[2,3-d]pyrimidin-4-yl]-1H-pyrazol-1-yl}-1λ6-thietane-1,1-dione] | 0.24 nM | 837 nM | 41.8 nM | 41.3 nM | – | – | –
11 | Cc1nc(-c2cc3c(-c4cn(C5CS(=O)(=O)C5)nc4-c4ccc(F)cc4)ncnc3o2)cs1 [Example 236, 3-{3-(4-fluorophenyl)-4-[6-(2-methyl-1,3-thiazol-4-yl)furo[2,3-d]pyrimidin-4-yl]-1H-pyrazol-1-yl}-16-thietane-1,1-dione] | 0.16 nM | 924 nM | 11.2 nM | 17.1 nM | – | – | –
12 | CNC(=O)c1cncc(-c2cc3c(-c4cn(C5CS(=O)(=O)C5)nc4-c4ccc(F)cc4)ncnc3o2)c1 [Example 239, 5-{4-[1-(1,1-dioxo-1λ6-thietan-3-yl)-3-(4-fluorophenyl)-1H-pyrazol-4-yl]furo[2,3-d]pyrimidin-6-yl}-N-methylpyridine-3-carboxamide] | 1.73 nM | 12400 nM | 1500 nM | 1280 nM | – | – | –
13 | Cc1ccc(-c2cc3c(-c4cn(C5CS(=O)(=O)C5)nc4-c4ccc(F)cc4)ncnc3o2)c(C)n1 [Example 240, 3-{4-[6-(2,6-dimethylpyridin-3-yl)furo[2,3-d]pyrimidin-4-yl]-3-(4-fluorophenyl)-1H-pyrazol-1-yl}-16-thietane-1,1-dione] | 0.34 nM | 7560 nM | 57.9 nM | 66.4 nM | – | – | –
14 | Cc1cccnc1-c1cc2c(-c3cn(C4CS(=O)(=O)C4)nc3-c3ccc(F)cc3)ncnc2o1 [Example 241, 3-{3-(4-fluorophenyl)-4-[6-(3-methylpyridin-2-yl)furo[2,3-d]pyrimidin-4-yl]-1H-pyrazol-1-yl}-1λ6-thietane-1,1-dione] | 1.2 nM | 1520 nM | 189 nM | 131 nM | – | – | –
15 | Cc1nn(C)cc1-c1cc2c(-c3cn(C4CS(=O)(=O)C4)nc3-c3ccc(F)cc3)ncnc2o1 [Example 242, 3-{4-[6-(1,3-dimethyl-1H-pyrazol-4-yl)furo[2,3-d]pyrimidin-4-yl]-3-(4-fluorophenyl)-1H-pyrazol-1-yl}-16-thietane-1,1-dione] | 0.18 nM | 533 nM | 8.34 nM | 10.8 nM | – | – | –
16 | Cc1cc(-c2cc3c(-c4cn(C5CS(=O)(=O)C5)nc4-c4ccc(F)cc4)ncnc3o2)n(C)n1 [Example 243, 3-{4-[6-(1,3-dimethyl-1H-pyrazol-5-yl)furo[2,3-d]pyrimidin-4-yl]-3-(4-fluorophenyl)-1H-pyrazol-1-yl}-16-thietane-1,1-dione] | 0.37 nM | 1200 nM | 93 nM | 87.8 nM | – | – | –
17 | Cn1cc(-c2cc3c(-c4cn(C5CS(=O)(=O)C5)nc4-c4ccc(F)cc4)ncnc3o2)nn1 [Example 244, 3-{3-(4-fluorophenyl)-4-[6-(1-methyl-1H-1,2,3-triazol-4-yl)furo[2,3-d]pyrimidin-4-yl]-1H-pyrazol-1-yl}-16-thietane-1,1-dione] | 0.55 nM | 1040 nM | 91.7 nM | 96.2 nM | – | – | –
18 | Cc1ccccc1-c1cc2c(-c3cn(C4CS(=O)(=O)C4)nc3-c3ccc(F)cc3)ncnc2o1 [Example 245, 3-{3-(4-fluorophenyl)-4-[6-(2-methylphenyl)furo[2,3-d]pyrimidin-4-yl]-1H-pyrazol-1-yl}-16-thietane-1,1-dione] | 0.31 nM | 3210 nM | 82.1 nM | 69.9 nM | – | – | –
19 | O=S1(=O)CC(n2cc(-c3ncnc4oc(-c5nccs5)cc34)c(-c3ccc(F)cc3)n2)C1 [Example 248, 3-{3-(4-fluorophenyl)-4-[6-(1,3-thiazol-2-yl)furo[2,3-d]pyrimidin-4-yl]-1H-pyrazol-1-yl}-16-thietane-1,1-dione] | 0.42 nM | 2550 nM | 100 nM | 92.7 nM | – | – | –
20 | Cc1ncccc1-c1cc2c(-c3cn(C4CS(=O)(=O)C4)nc3-c3ccc(F)cc3)ncnc2o1 [Example 249, 3-{3-(4-fluorophenyl)-4-[6-(2-methylpyridin-3-yl)furo[2,3-d]pyrimidin-4-yl]-1H-pyrazol-1-yl}-1λ6-thietane-1,1-dione] | 0.25 nM | 4510 nM | 103 nM | 104 nM | – | – | –
21 | Cn1cc(-c2cc3c(-c4cn(C5CS(=O)(=O)C5)nc4-c4ccc(F)cc4)ncnc3o2)cn1 [Example 250, 3-{3-(4-fluorophenyl)-4-[6-(1-methyl-1H-pyrazol-4-yl)furo[2,3-d]pyrimidin-4-yl]-1H-pyrazol-1-yl}-16-thietane-1,1-dione] | 0.05 nM | 696 nM | 3.54 nM | 9.26 nM | – | – | –
22 | Cc1nn(C)cc1-c1cc2c(-c3cn(CC(C)(C)O)nc3-c3ccc(F)cc3)ncnc2o1 [Example 251, 1-{4-[6-(1,3-dimethyl-1H-pyrazol-4-yl)furo[2,3-d]pyrimidin-4-yl]-3-(4-fluorophenyl)-1H-pyrazol-1-yl}-2-methylpropan-2-ol] | 0.2 nM | 745 nM | 8.08 nM | 12.8 nM | – | – | –
23 | Cc1nn(C)c(C)c1-c1cc2c(-c3cn(CC(C)(C)O)nc3-c3ccc(F)cc3)ncnc2o1 [Example 252, 1-{3-(4-fluorophenyl)-4-[6-(1,3,5-trimethyl-1H-pyrazol-4-yl)furo[2,3-d]pyrimidin-4-yl]-1H-pyrazol-1-yl}-2-methylpropan-2-ol] | 0.09 nM | 630 nM | 8.87 nM | 21.9 nM | – | – | –
